Measurements reported in ChEMBL document CHEMBL5537140, “Discovery and exploration of novel somatostatin receptor subtype 5 (SSTR5) antagonists for the treatment of cholesterol gallstones” (Eur J Med Chem, 2024).
Activity calls are given as the source filed them. No cut-off for these calls is given here.

Experiments:
[1] = tested on: CHO; assay: Cytotoxicity against CHO cells upto 10 uM; details: chinese hamster
[2] = biological target: T1, Somatostatin receptor type 5 (Mus musculus, UniProt O08858); assay: Antagonist activity at N-terminal HA-tagged mouse SSTR5 expressed in CHO cells assessed as change in intracellular […] level preincubated with agonist for 10 mins followed by compound addition by CRE-driven luciferase reporter based microplate reader; format: functional, cell-based
T1 sequence (O08858 whole entry): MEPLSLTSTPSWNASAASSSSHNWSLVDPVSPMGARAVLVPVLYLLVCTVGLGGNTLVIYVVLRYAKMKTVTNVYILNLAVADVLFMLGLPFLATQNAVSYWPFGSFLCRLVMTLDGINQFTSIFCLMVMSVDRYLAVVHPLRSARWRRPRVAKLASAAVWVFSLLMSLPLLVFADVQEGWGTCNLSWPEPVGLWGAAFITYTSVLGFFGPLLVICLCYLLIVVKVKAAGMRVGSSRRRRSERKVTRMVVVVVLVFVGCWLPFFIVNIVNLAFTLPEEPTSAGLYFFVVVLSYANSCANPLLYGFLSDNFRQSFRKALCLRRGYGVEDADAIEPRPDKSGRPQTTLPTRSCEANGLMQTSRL

[3] = biological target: Somatostatin receptor type 5 (Homo sapiens, UniProt P35346); assay: Antagonist activity at N-terminal HA-tagged human SSTR5 expressed in CHO cells assessed as change in intracellular […] level preincubated with agonist for 10 mins followed by compound addition by CRE-driven luciferase reporter based microplate reader; format: functional, cell-based
Somatostatin receptor type 5 (Homo sapiens, UniProt P35346), sequence (P35346 whole entry): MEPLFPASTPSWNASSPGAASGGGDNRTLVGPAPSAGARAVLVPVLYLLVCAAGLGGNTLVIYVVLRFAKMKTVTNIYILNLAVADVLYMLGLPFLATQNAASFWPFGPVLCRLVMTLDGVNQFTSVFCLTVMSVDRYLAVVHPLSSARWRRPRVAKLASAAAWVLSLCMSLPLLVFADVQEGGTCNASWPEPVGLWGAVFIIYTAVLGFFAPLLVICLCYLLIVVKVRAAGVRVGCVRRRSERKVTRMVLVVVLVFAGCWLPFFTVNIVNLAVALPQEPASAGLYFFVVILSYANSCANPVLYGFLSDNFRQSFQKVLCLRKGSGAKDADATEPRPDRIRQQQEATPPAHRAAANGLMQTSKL

[4] = Observed clearance in C57BL/6J mouse at 1 mg/kg, iv measured at 0.05 to 24 hrs by LC-MS/MS analysis; format: ADME, organism-based; details: in vivo, time 0.05-24 hrs
[5] = Cytotoxicity against CHO cells assessed as cellular ATP at 10 uM relative to control; format: toxicity, cell-based, Cricetulus griseus; details: chinese hamster, read-out: Activity
[6] = Half-life in C57BL/6J mouse at 3 mg/kg, po measured at 0.25 to 24 hrs by LC-MS/MS analysis; format: ADME, organism-based; details: in vivo, time 0.25-24 hrs
[7] = Metabolic stability in mouse liver microsomes assessed as parent compound remaining at 1 uM incubated for 30 mins in presence of NADPH by LC-MS/MS analysis; format: ADME, Microsome; details: read-out: Stability
[8] = Observed volume of distribution at steady state in C57BL/6J mouse at 1 mg/kg, iv measured at 0.05 to 24 hrs by LC-MS/MS analysis; format: ADME, organism-based; details: in vivo, time 0.05-24 hrs, read-out: Vdss
[9] = tested on: Mus musculus; assay: Protection against lithogenic diet induced cholesterol gallstone C57BL/6J mouse model assessed as reduction in dense-cored gallstone precipitate at 1 to 3 mg/kg, po administered once daily for 14 days; format: functional, organism-based; details: dose 1-3 mg/kg, time 14.0 day
[10] = Cmax in C57BL/6J mouse at 3 mg/kg, po measured at 0.25 to 24 hrs by LC-MS/MS analysis; format: ADME, organism-based; details: in vivo, time 0.25-24 hrs
[11] = tested on: Mus musculus; assay: Protection against lithogenic diet induced cholesterol gallstone C57BL/6J mouse model assessed as reduction in dense-cored gallstone precipitate at 60 mg/kg, po administered once daily for 14 days; format: functional, organism-based; details: time 14.0 day
[12] = Observed AUC (0 to infinity) in C57BL/6J mouse at 3 mg/kg, po measured at 0.25 to 24 hrs by LC-MS/MS analysis; format: ADME, organism-based; details: in vivo, time 0.25-24 hrs
[13] = tested on: Mus musculus; assay: Protection against lithogenic diet induced cholesterol gallstone C57BL/6J mouse model assessed as reduction in cholesterol gallstone formation at 1 to 3 mg/kg, po administered once daily for 14 days; format: functional, organism-based; details: dose 1-3 mg/kg, time 14.0 day
[14] = Observed AUC (0 to infinity) in C57BL/6J mouse at 1 mg/kg, iv measured at 0.05 to 24 hrs by LC-MS/MS analysis; format: ADME, organism-based; details: in vivo, time 0.05-24 hrs
[15] = biological target: Voltage-gated inwardly rectifying potassium channel KCNH2 (Homo sapiens, UniProt Q12809); assay: Inhibition of hERG expressed in CHO cells by Qpatch automatic patch clamp method
Voltage-gated inwardly rectifying potassium channel KCNH2, sequence (Q12809 whole entry): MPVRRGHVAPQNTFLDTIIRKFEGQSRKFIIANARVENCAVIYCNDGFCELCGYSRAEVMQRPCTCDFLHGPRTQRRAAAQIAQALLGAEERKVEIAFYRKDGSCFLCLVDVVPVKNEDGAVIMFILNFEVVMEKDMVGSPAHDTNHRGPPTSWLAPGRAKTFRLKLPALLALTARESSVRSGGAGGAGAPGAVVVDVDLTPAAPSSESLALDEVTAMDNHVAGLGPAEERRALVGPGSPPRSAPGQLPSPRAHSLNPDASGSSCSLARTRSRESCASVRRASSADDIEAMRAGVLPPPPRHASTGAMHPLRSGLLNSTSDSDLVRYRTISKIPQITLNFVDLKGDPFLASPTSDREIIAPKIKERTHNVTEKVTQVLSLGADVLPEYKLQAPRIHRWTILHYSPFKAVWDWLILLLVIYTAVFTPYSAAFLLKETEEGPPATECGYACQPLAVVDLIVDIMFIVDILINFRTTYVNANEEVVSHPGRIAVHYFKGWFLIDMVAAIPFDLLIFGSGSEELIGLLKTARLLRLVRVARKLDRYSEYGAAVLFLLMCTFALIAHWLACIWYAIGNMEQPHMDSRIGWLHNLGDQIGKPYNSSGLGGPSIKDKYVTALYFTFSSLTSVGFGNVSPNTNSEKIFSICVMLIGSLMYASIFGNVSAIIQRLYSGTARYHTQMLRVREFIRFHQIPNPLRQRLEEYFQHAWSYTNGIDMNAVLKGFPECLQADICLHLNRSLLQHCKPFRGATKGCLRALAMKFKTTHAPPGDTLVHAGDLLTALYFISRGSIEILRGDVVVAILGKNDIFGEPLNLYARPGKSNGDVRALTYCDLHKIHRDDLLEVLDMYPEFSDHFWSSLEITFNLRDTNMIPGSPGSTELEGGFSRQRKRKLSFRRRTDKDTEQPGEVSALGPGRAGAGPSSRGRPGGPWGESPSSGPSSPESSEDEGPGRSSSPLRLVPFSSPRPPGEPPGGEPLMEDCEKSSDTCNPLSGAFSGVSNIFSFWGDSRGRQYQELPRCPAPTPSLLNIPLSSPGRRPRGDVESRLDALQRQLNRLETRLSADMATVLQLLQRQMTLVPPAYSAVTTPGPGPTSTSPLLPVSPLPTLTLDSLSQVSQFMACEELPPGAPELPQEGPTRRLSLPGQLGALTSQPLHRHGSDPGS

[16] = Tmax in C57BL/6J mouse at 3 mg/kg, po measured at 0.25 to 24 hrs by LC-MS/MS analysis; format: ADME, organism-based; details: in vivo, time 0.25-24 hrs
[17] = tested on: Mus musculus; assay: Protection against lithogenic diet induced cholesterol gallstone C57BL/6J mouse model assessed as reduction in large gallstone precipitate at 60 mg/kg, po administered once daily for 14 days; format: functional, organism-based; details: time 14.0 day
[18] = tested on: Mus musculus; assay: Protection against lithogenic diet induced cholesterol gallstone C57BL/6J mouse model assessed as reduction in large gallstone precipitate at 1 to 3 mg/kg, po administered once daily for 14 days; format: functional, organism-based; details: dose 1-3 mg/kg, time 14.0 day
[19] = Oral bioavailability in C57BL/6J mouse at 3 mg/kg measured at 0.25 to 24 hrs by LC-MS/MS analysis; format: ADME, organism-based; details: in vivo, time 0.25-24 hrs
[20] = Half-life in C57BL/6J mouse at 1 mg/kg, iv measured at 0.05 to 24 hrs by LC-MS/MS analysis; format: ADME, organism-based; details: in vivo, time 0.05-24 hrs
[21] = tested on: Mus musculus; assay: Induction of gallbladder emptying in C57BL/6J mouse assessed as reduction in gallbladder weight at 10 mg/kg, po preadministered with compound for 30 mins followed by egg yolk administration and measured after 15 mins; format: functional, organism-based; details: time 45.0 min
[22] = Metabolic stability in human liver microsomes assessed as parent compound remaining at 1 uM incubated for 30 mins in presence of NADPH by LC-MS/MS analysis; format: ADME, Microsome; details: read-out: Stability
[23] = tested on: Mus musculus; assay: Protection against lithogenic diet induced cholesterol gallstone C57BL/6J mouse model assessed as reduction in cholesterol gallstone formation at 60 mg/kg, po administered once daily for 14 days; format: functional, organism-based; details: time 14.0 day

Row | SMILES | Activity [1] | IC50 [2] [nM] | also measured
1 | CCOc1cc(CN2CCC(F)(CNc3ccc(N)cc3)CC2)cc(OCC)c1-c1ccc(F)cc1 | Non-Toxic | 1770 | 
2 | CN(C)C(=O)C(CCN1CCC(O)(c2ccc(Cl)cc2)CC1)(c1ccccc1)c1ccccc1 [LOPERAMIDE] | Non-Toxic | 63600 | IC50 [3]: 33100 nM
3 | CCOc1cc(CN2CCC(F)(C(=O)Nc3ccc(C(=O)O)cc3)CC2)cc(OCC)c1-c1ccc(F)cc1 | Non-Toxic | 2560 | 
4 | CCOc1cc(CN2CCC(CNc3ccc(C(=O)O)cc3)CC2)cc(OCC)c1-c1ccc(F)cc1 | Non-Toxic | 91.7 | 
5 | CCOc1cc(CN2CCC(F)(CNc3ccc(C(=O)O)cc3C)CC2)cc(OCC)c1-c1ccc(F)cc1 | Non-Toxic | 25.4 | 
6 | CCOc1cc(CN2CCC(F)(CNc3ccc(C(=O)O)c(OC)c3)CC2)cc(OCC)c1-c1ccc(F)cc1 | Non-Toxic | 1.4 | clearance [4]: 30.5 mL/min/kg; viability at 10 µM [5]: 92%; half-life [6]: 215 min; remaining at 0.5 h, 1 µM [7]: 59.8%; Vd [8]: 2.6 L/kg; Activity [9]: Active; Cmax [10]: 208 ng/mL; IC50 [3]: 2.8 nM; Activity [11]: Active; AUC(0-inf) [12]: 494 ng·h/mL; Activity [13]: Active; AUC(0-inf) [14]: 562 ng·h/mL; IC50 [15]: > 20 µM; Tmax [16]: 19.8 min; Activity [17]: Active; Activity [18]: Active; bioavailability [19]: 29.3%; half-life [20]: 147 min; Activity [21]: Active; remaining at 0.5 h, 1 µM [22]: 92.5%
7 | CCOc1cc(CN2CCC(F)(CNc3ccc(C(=O)O)cc3OC)CC2)cc(OCC)c1-c1ccc(F)cc1 | Non-Toxic | 20.5 | 
8 | CCOc1cc(CN2CC(COc3ccc(C(=O)O)cc3)C2)cc(OCC)c1-c1ccc(F)cc1 | Non-Toxic | 394 | 
9 | CCOc1cc(CN2CCC(C)(COc3ccc(C(=O)O)cc3)CC2)cc(OCC)c1-c1ccc(F)cc1 | Non-Toxic | 1860 | IC50 [3]: 3410 nM
10 | CCOc1cc(CN2CCC(F)(COc3ccc(C(=O)O)cc3)CC2)cc(OCC)c1-c1ccc(F)cc1 | Non-Toxic | 14.8 | remaining at 0.5 h, 1 µM [7]: 61%
11 | CCOc1cc(CN2CCC(F)(CNc3ccc(C(=O)O)cc3)CC2)cc(OCC)c1-c1ccc(F)cc1 | Non-Toxic | 13.9 | remaining at 0.5 h, 1 µM [7]: 81.4%; IC50 [3]: 27.6 nM; IC50 [15]: > 20 µM
12 | CCOc1cc(CN2CCC(O)(Cc3ccc(C(=O)O)cc3)CC2)cc(OCC)c1-c1ccc(F)cc1 | Non-Toxic | 176 | 
13 | CCOc1cc(CN2CC(CNc3ccc(C(=O)O)cc3)C2)cc(OCC)c1-c1ccc(F)cc1 | Non-Toxic | 157 | 
14 | CCOc1cc(CN2CCC(F)(CNc3ccc(O)cc3)CC2)cc(OCC)c1-c1ccc(F)cc1 | Non-Toxic | 1300 | 
15 | CCOc1cc(CN2CCC(O)(c3ccc(Cl)cc3)CC2)cc(OCC)c1-c1ccc(F)cc1 | Non-Toxic | 11100 | 
16 | CCOc1cc(CN2CCC(F)(CNc3ccc(C(=O)O)c(C)c3)CC2)cc(OCC)c1-c1ccc(F)cc1 | Non-Toxic | 97.5 | 
17 | CCOc1cc(CN2CCC(O)(CNc3ccc(C(=O)O)cc3)CC2)cc(OCC)c1-c1ccc(F)cc1 | Non-Toxic | 52 | 
18 | CCOc1cc(CN2CCC(C)(CNc3ccc(C(=O)O)cc3)CC2)cc(OCC)c1-c1ccc(F)cc1 | Non-Toxic | 128 | 
19 | CCOc1cc(CN2CCC(C(=O)Nc3ccc(C(=O)O)cc3)CC2)cc(OCC)c1-c1ccc(F)cc1 | Non-Toxic | 853 | 
20 | CCOc1cc(CN2CCC(C)(C(=O)Nc3ccc(C(=O)O)cc3)CC2)cc(OCC)c1-c1ccc(F)cc1 | Non-Toxic | 12200 | 
21 | CCOc1cc(CN2CC(Nc3ccc(C(=O)O)cc3)C2)cc(OCC)c1-c1ccc(F)cc1 | Non-Toxic | 183 | IC50 [3]: 1010 nM
22 | CCOc1cc(CN2CCC(F)(CNc3ccc(C(=O)O)c(Cl)c3)CC2)cc(OCC)c1-c1ccc(F)cc1 | Non-Toxic | 42.2 | 
23 | CCOc1cc(CN2CCC(O)(C(=O)Nc3ccc(C(=O)O)cc3)CC2)cc(OCC)c1-c1ccc(F)cc1 | Non-Toxic | 14700 | IC50 [3]: 22900 nM
24 | C[C@H](CCC(=O)O)[C@H]1CC[C@H]2[C@@H]3[C@@H](O)C[C@@H]4C[C@H](O)CC[C@]4(C)[C@H]3CC[C@]12C |  |  | Activity [23]: Active
25 | CCOc1cc(CN2CCC(F)(CNc3ccc(C(=O)O)cc3Cl)CC2)cc(OCC)c1-c1ccc(F)cc1 | Non-Toxic | 132 | 
26 | CCOc1cc(CN2CCC(Oc3ccc(C(=O)O)cc3)CC2)cc(OCC)c1-c1ccc(F)cc1 | Non-Toxic | 44.3 | 
27 | CCOc1cc(CN2CCC(O)(COc3ccc(C(=O)O)cc3)CC2)cc(OCC)c1-c1ccc(F)cc1 | Non-Toxic | 51.1 | 
28 | CCOc1cc(CN2CCC(COc3ccc(C(=O)O)cc3)CC2)cc(OCC)c1-c1ccc(F)cc1 |  | 11.5 | 
